{"source": "PubChem BioAssay AID1259411", "about": "(Chemical Carcinogenesis Research Information System (CCRIS), 2018)", "test_system": "rodent carcinogenicity bioassays, tumor incidence", "experiment": "CCRIS carcinogenicity studies", "conditions": "Dose: 0, Dose: 0", "procedure,_shortened": "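NCI-built, expert-reviewed records of carcinogenicity and related test outcomes (mutagenicity, tumor promotion/inhibition) compiled from published and report sources, historical span 1985-2011, not updated.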", "note": "Active and inactive are the calls of the source. The rule behind the calls is not given here."}
{"molecule": "CCN(CCO)N=O", "values": [{"measurement": "carcinogen call", "setting": "Species: HAMSTER, Strain/Sex: SYRIAN/MALE, Route: ORAL, 1000, 2000 PPM IN DIET FOR 2 WK (STUDY DURATION: 30 WK), 1000, 2000 PPM IN DIET FOR 2 WK (STUDY DURATION: 30 WK)", "value": "inactive; negative"}, {"measurement": "carcinogen call", "setting": "Species: MOUSE, Strain/Sex: BALB/C/MALE, Route: ORAL, 1000, 2000 PPM IN DRINKING WATER FOR 2 WK (STUDY DURATION: 52 WK), 1000, 2000 PPM IN DRINKING WATER FOR 2 WK (STUDY DURATION: 52 WK), Tumor Site: Type of Lesion: LUNG: TUMOR", "value": "active; positive"}, {"measurement": "carcinogen call", "setting": "Species: MOUSE, Strain/Sex: BALB/MALE, Route: ORAL, 1000, 2000 PPM IN DIET FOR 2 WK (STUDY DURATION: 30 WK), 1000, 2000 PPM IN DIET FOR 2 WK (STUDY DURATION: 30 WK), Tumor Site: Type of Lesion: LUNG: TUMOR", "value": "active; positive"}, {"measurement": "carcinogen call", "setting": "Species: MOUSE, Strain/Sex: STRAIN-A/MALE, Route: ORAL, 1000, 2000 PPM IN DIET FOR 2 WK (STUDY DURATION: 30 WK), 1000, 2000 PPM IN DIET FOR 2 WK (STUDY DURATION: 30 WK), Tumor Site: Type of Lesion: LIVER: TUMOR, LUNG: TUMOR", "value": "active; positive"}, {"measurement": "carcinogen call", "setting": "Species: RAT, Strain/Sex: F344/MALE, Route: ORAL, 1000 PPM IN DIET FOR 2 WK (STUDY DURATION: 30 WK)", "value": "inactive; negative"}, {"measurement": "carcinogen call", "setting": "Species: RAT, Strain/Sex: WISTAR/FEMALE, Route: ORAL, 1000 PPM IN DIET FOR 2 WK (STUDY DURATION: 30 WK), Tumor Site: Type of Lesion: KIDNEY: RENAL CELL TUMOR", "value": "active; positive"}, {"measurement": "carcinogen call", "setting": "Species: RAT, Strain/Sex: WISTAR/MALE, Route: ORAL, 1000, 2000 PPM IN DRINKING WATER FOR 2 WK (STUDY DURATION: 52 WK), 1000, 2000 PPM IN DRINKING WATER FOR 2 WK (STUDY DURATION: 52 WK), Tumor Site: Type of Lesion: KIDNEY: TUMOR", "value": "active; positive"}, {"measurement": "carcinogen call", "setting": "Species: RAT, Strain/Sex: WISTAR/MALE, Route: ORAL, 1000 PPM IN DIET FOR 2 WK (STUDY DURATION: 30 WK), Tumor Site: Type of Lesion: KIDNEY: RENAL CELL TUMOR, LIVER: TUMOR", "value": "active; positive"}, {"measurement": "carcinogen call", "setting": "Species: RAT, Strain/Sex: WISTAR/MALE, Route: ORAL, 1000 PPM IN DRINKING WATER FOR 2 WK (STUDY DURATION: 30 WK), Tumor Site: Type of Lesion: KIDNEY: RENAL CELL TUMOR", "value": "active; positive"}]}
{"molecule": "Cc1ccc2cc3c(ccc4ccccc43)c3c2c1CC3OS(=O)(=O)O", "note": "(centres undefined)", "values": [{"measurement": "carcinogen call", "setting": "Species: RAT, Strain/Sex: SPRAGUE-DAWLEY/FEMALE, Route: SUBCUTANEOUS, 0.2 UMOL IN 0.1 ML SESAME OIL: DMSO (9:1) 3/WK FOR 20 DOSES (STUDY DURATION: 52 WK), Tumor Site: Type of Lesion: INJECTION SITE: SARCOMA", "value": "active; positive"}]}
{"molecule": "FC(F)=C(F)F", "values": [{"measurement": "carcinogen call", "setting": "Species: MOUSE, Strain/Sex: B6C3F1/FEMALE, Route: INHALATION, 312, 625, 1250 PPM 6 HR/D 5 D/WK FOR 95-96 WK (STUDY DURATION: 96 WK), 312, 625, 1250 PPM 6 HR/D 5 D/WK FOR 95-96 WK (STUDY DURATION: 96 WK), Tumor Site: Type of Lesion: LIVER: HEMANGIOMA, HEMANGIOSARCOMA, HEPATOCELLULAR CARCINOMA, HEMATOPOIETIC SYSTEM: HISTIOCYTIC SARCOMA", "value": "active; positive"}, {"measurement": "carcinogen call", "setting": "Species: MOUSE, Strain/Sex: B6C3F1/MALE, Route: INHALATION, 312, 625, 1250 PPM 6 HR/D 5 D/WK FOR 95-96 WK (STUDY DURATION: 96 WK), 312, 625, 1250 PPM 6 HR/D 5 D/WK FOR 95-96 WK (STUDY DURATION: 96 WK), Tumor Site: Type of Lesion: LIVER: HEMANGIOMA, HEMANGIOSARCOMA, HEPATOCELLULAR CARCINOMA, HEMATOPOIETIC SYSTEM: HISTIOCYTIC SARCOMA", "value": "active; positive"}, {"measurement": "carcinogen call", "setting": "Species: RAT, Strain/Sex: F344/FEMALE, Route: INHALATION, 312, 625, 1250 PPM 6 HR/D 5 D/WK FOR 104 WK (STUDY DURATION: 106 WK), 312, 625, 1250 PPM 6 HR/D 5 D/WK FOR 104 WK (STUDY DURATION: 106 WK), Tumor Site: Type of Lesion: KIDNEY(RENAL TUBULE): ADENOMA, ADENOMA OR CARCINOMA, LIVER: HEMANGIOSARCOMA, HEPATOCELLULAR ADENOMA, HEPATOCELLULAR CARC", "value": "active; positive"}, {"measurement": "carcinogen call", "setting": "Species: RAT, Strain/Sex: F344/MALE, Route: INHALATION, 156, 312, 625 PPM 6 HR/D 5 D/WK FOR 104 WK (STUDY DURATION: 106 WK), 156, 312, 625 PPM 6 HR/D 5 D/WK FOR 104 WK (STUDY DURATION: 106 WK), Tumor Site: Type of Lesion: KIDNEY(RENAL TUBULE): ADENOMA, LIVER: HEPATOCELLULAR CARCINOMA, HEPATOCELLULAR ADENOMA OR CARCINOMA", "value": "active; positive"}]}
{"molecule": "c1ccc2c(c1)ccc1ncccc12", "values": [{"measurement": "carcinogen call", "setting": "Species: RAT, Strain/Sex: SPRAGUE-DAWLEY/FEMALE, Route: SUBCUTANEOUS, 200 UMOL/KG IN DMSO INTO SUPRASCAPULAR AREA ON DAY 1 OF LIFE FOLLOWED BY 0, 100 UMOL 1/WK AT WK 2-7 THEN O, 200 UMOL/, 200 UMOL/KG IN DMSO INTO SUPRASCAPULAR AREA ON DAY 1 OF LIFE FOLLOWED BY 0, 100 UMOL 1/WK AT WK 2-7 THEN O, 200 UMOL/", "value": "inactive; negative"}, {"measurement": "carcinogen call", "setting": "Species: RAT, Strain/Sex: SPRAGUE-DAWLEY/MALE, Route: SUBCUTANEOUS, 200 UMOL/KG IN DMSO INTO SUPRASCAPULAR AREA ON DAY 1 OF LIFE FOLLOWED BY 0, 100 UMOL 1/WK AT WK 2-7 THEN O, 200 UMOL/, 200 UMOL/KG IN DMSO INTO SUPRASCAPULAR AREA ON DAY 1 OF LIFE FOLLOWED BY 0, 100 UMOL 1/WK AT WK 2-7 THEN O, 200 UMOL/", "value": "inactive; negative"}]}
{"molecule": "COC(=O)C1=CCCN(N=O)C1", "values": [{"measurement": "carcinogen call", "setting": "Species: RAT, Strain/Sex: F344/MALE, Route: ORAL, 20 PPM IN DRINKING WATER FOR DURATION OF STUDY (TOTAL DOSE: 0; 4.1 MMOL/KG) (STUDY DURATION: 128 WK), 20 PPM IN DRINKING WATER FOR DURATION OF STUDY (TOTAL DOSE: 0; 4.1 MMOL/KG) (STUDY DURATION: 128 WK), Tumor Site: Type of Lesion: EXOCRINE PANCREAS: ACINAR ADENOMA", "value": "active; positive"}]}
{"molecule": "O=NN1CCOC1=O", "values": [{"measurement": "carcinogen call", "setting": "Species: HAMSTER, Strain/Sex: SYRIAN/FEMALE, Route: GAVAGE, 12 MG/ML ((0.2 ML OF A SOLUTION IN ETHYL ACETATE/CORN OIL (1:2)) 1/WK FOR 30 WK (STUDY DURATION: LIFE SPAN), Tumor Site: Type of Lesion: FORESTOMACH: SQUAMOUS CELL CARCINOMA OR ADENOMA", "value": "active; positive"}, {"measurement": "carcinogen call", "setting": "Species: RAT, Strain/Sex: F344/FEMALE, Route: INTRAVESICULAR, 2.4 MG 2/WK FOR 8 WK (STUDY DURATION: LIFETIME), Tumor Site: Type of Lesion: BLADDER: TUMOR", "value": "active; positive"}]}
